Test results published in patent US5567716A, “Trans and cis traumatic acid salts having cicatrizant activity associated to bacteriostatic, antiviral, antibiotic or antifungal activity” (priority 1992, dated 1996).
Where two headings read alike, the source gives them in different places.

Key:
E.coli ATCC 35218 = test: microbe, parasite or virus in culture; format: cell-based; conditions: Table 2.b)3; test concentrations given in μg/ml
Procedure: (§1) 1. Culture Medium: Tryprone Soy Broth (TBS) - Biogenetics
(§2) Microbic standard strains from American Type Culture Collection (ATCC) were used, chosen among aerobic Gram positive and negative as follows:
(§3) The broths culture of the different species are prepared growing the standard strain (kept in Tryptic Soy Agar (TSA) slent at 5° C.) in Tryptone Soy Broth (TSB) for 12 hours at 37° C. 10 ml are then taken up from each culture, centrifugated for 3 times at 3500 PM washing each time the sediment using 10 ml of sterile saline solution. The sediment is resuspended in the saline solution until obtainment of a turbidity corresponding to the Mc Farland standard solution (the suspension title must be […] UFC/ml).
(§4) The compounds, dissolved as stock solution, were added to test tubes containing 5 ml TBS in order to obtain the desired Final concentration 10000; 5000; 1000; 200; 40; 2; 0.4; 0.05 μg/ml (culture medium maximal dilution=1/10).
(§5) 50 μl of bacterial suspension are added to the tube containing the compounds to be tested and incubated at 37° C.: the densitometric determination is made in comparison with Mc Farland standard solution 24 and 48 hours later.
(§6) After the incubation time the suspensions ape gently agitated; 50 μl of each suspension are inoculated in tubes containing […] of TSB and incubated at 37° C.; the densitometric determination is made 48 hours later.
(§7) BMC is defined by comparison between the two densitometric evaluation.

B.subtilis ATCC 6633 = test: Evaluation of bacteriostatic minimal concentration (BMC); format: cell-based; conditions: Table 2.b)5; test concentrations given in μg/ml
Procedure: as §1, §2, §3, §4, §5, §6, §7

Ps.aeruginosa ATCC 35422 = test: as above; format: cell-based; conditions: Table 2.b)1; test concentrations given in μg/ml
Procedure: as §1, §2, §3, §4, §5, §6, §7

St.aureus ATCC 65380 = test: as above; format: cell-based; conditions: Table 2.b)2; test concentrations given in μg/ml
Procedure: as §1, §2, §3, §4, §5, §6, §7

C.albicans ATCC 10231 = test: as above; format: cell-based; conditions: Table 2.b)6; test concentrations given in μg/ml
Procedure: as §1, §2, §3, §4, §5, §6, §7

[1] = tested on: St.epidermidis ATCC 14990; test: as above; format: cell-based; conditions: Table 2.b)4; test concentrations given in μg/ml
Procedure: as §1, §2, §3, §4, §5, §6, §7

fibroblast cells L929 = test: Cell growth of fibroblast L929 culture, crystal violet colorimetry (1.2); conditions: in words
Procedure: Mice fibroblast cells L929, clone derived from connective tissue, are suspended in Eagle's MEM with penicillin (100U/ml)--streptomycin (0.1 mg/ml), seeded in culture dishes (10000cells/dish) and cultured overnight. After 24 hours the culture medium was decantated and the tested compounds are added. The cellular density is measured after 4 (t0) and 24 (t1) hours of incubation at 37° C. in 5% CO2 air by colorimetry using crystal violet (exposure for 15 minutes, room temperature; absorbance 570 nm).
The cells number is measured at 4 (t0) and 24 (t1) hours from the seeding. The cell growth is evaluated at t1/t0 rate (%).

Balb/C 3T3 fibroblasts = test: Cell growth of Balb/C 3T3 fibroblasts, crystal violet colorimetry (1.1b); format: cell-based, Mouse; conditions: for promotion of cell growth: 10^-5 to 10^-7 M, lincomycin > rolitetracycline > erythromycin salt; for promotion of cell growth / cell growth effect compared to traumatic acid: in words; for cell growth t2/t1: 48 h/24 h, control 76.776
Procedure: Mouse Balb/C 3T3 fibroblasts were grown in DMEM medium supplemented with penicillin (100 units/ml) and streptomycin (0.1 mg/ml). For experimental purposes, cells are routinely inoculated in […] diameter culture dishes (5000cells/dish) and cultured overnight.
The compounds to be tested are solubilized in DMEM+10%FCS and DMSO to obtain the final concentration of 10^-5 M, 10^-6 M e 10^-7 M in 0.05% DMSO.
The cells number is measured 4, 24 and 48 hours after seeding. The cell growth is evaluated as t2/t1 ratio (%).

[2] = Physical chemical characteristics: solubility in water and organic solvents
[3] = 4 h (t0), 10^-5M, control 0.300
[4] = 4 h (t0), 10^-6M, control 0.300
[5] = 4 h (t0), 10^-7M, control 0.300
[6] = 24 h (t1), 10^-5M, control 0.481
[7] = 24 h (t1), 10^-6M, control 0.481
[8] = 24 h (t1), 10^-7M, control 0.481
[9] = 48 h (t2), 10^-5M, control 0.849
[10] = 48 h (t2), 10^-6M, control 0.849
[11] = 48 h (t2), 10^-7M, control 0.849

| Molecule | MINIMAL BACTERIAL CONCENTRATION (E.coli ATCC 35218) | MINIMAL BACTERIAL CONCENTRATION (B.subtilis ATCC 6633) | MINIMAL BACTERIAL CONCENTRATION (Ps.aeruginosa ATCC 35422) | MINIMAL BACTERIAL CONCENTRATION (St.aureus ATCC 65380) | MINIMAL BACTERIAL CONCENTRATION (C.albicans ATCC 10231) | MINIMAL BACTERIAL CONCENTRATION [1] | promotion of cell growth (Balb/C 3T3 fibroblasts) | Cell density (Balb/C 3T3 fibroblasts; [3]) | Cell density (Balb/C 3T3 fibroblasts; [4]) | Cell density (Balb/C 3T3 fibroblasts; [5]) | Cell density (Balb/C 3T3 fibroblasts; [6]) | Cell density (Balb/C 3T3 fibroblasts; [7]) | Cell density (Balb/C 3T3 fibroblasts; [8]) | Cell density (Balb/C 3T3 fibroblasts; [9]) | Cell density (Balb/C 3T3 fibroblasts; [10]) | Cell density (Balb/C 3T3 fibroblasts; [11]) | cell growth t2/t1 (Balb/C 3T3 fibroblasts; 10^-5M) | cell growth t2/t1 (Balb/C 3T3 fibroblasts; 10^-6M) | cell growth t2/t1 (Balb/C 3T3 fibroblasts; 10^-7M) | cell growth effect compared to traumatic acid (Balb/C 3T3 fibroblasts) | other results |
| --- | --- | --- | --- | --- | --- | --- | --- | --- | --- | --- | --- | --- | --- | --- | --- | --- | --- | --- | --- | --- | --- |
| silver trans-traumatate [Silver Traumatate] | 40.00 | 200.00 | 40.00 | 40.00 | > 10,000 | 200.00 |  |  |  |  |  |  |  |  |  |  |  |  |  |  | solubility in 5% NH3 (5% nh3): > 10000 µg/mL |
| gentamycin trans-traumatate [Gentamycin Traumatate] | 200.00 | 40.00 | 1,000.00 | 1,000.00 | > 10,000 | 200.00 |  |  |  |  |  |  |  |  |  |  |  |  |  |  | cell growth effect compared to traumatic acid (fibroblast cells L929): higher than traumatic acid effect; promotion of cell growth (proliferation) (fibroblast cells L929; benzethonium > gentamycin salt): capable to promote cell growth (proliferation) according to dose-effect relationship |
| CCC[C@@H]1C[C@@H](C(=O)N[C@@H]([C@H]2O[C@H](SC)[C@H](O)[C@@H](O)[C@H]2O)[C@@H](C)O)N(C)C1.O=C(O)/C=C/CCCCCCCCC(=O)O (relative stereo) [Lincomycin Traumatate, lincomycin trans-traumatate] | 10,000.00 | 1,000.00 | 10,000.00 | 10,000.00 | 10,000.00 | 200.00 | capable to promote cell growth at all the tested doses | 0.361 | 0.352 | 0.384 | 0.228 | 0.210 | 0.209 | 0.693 | 0.734 | 0.705 | 195.78% | 246.29% | 247.68% | more consistent if compared to the corresponding one of the parent compound traumatic acid | organic solvent solubility (dmso): > 10000 µg/mL; solubility in water (water): > 10000 µg/mL |
| rolitetracycline trans-traumatate [Rolitetracycline Traumatate] | 1,000.00 | 40.00 | 10,000.00 | 5,000.00 | 1,000.00 | 200.00 | capable to promote cell growth at all the tested doses | 0.46 | 0.475 | 0.482 | 0.255 | 0.356 | 0.287 | 0.678 | 0.660 | 0.828 | 166.39% | 186.69% | 185.44% | more consistent if compared to the corresponding one of the parent compound traumatic acid | organic solvent solubility ([2]; in DMSO): > 10000 µg/mL; solubility in water ([2]; water): > 10000 µg/mL |
